{"source": "paper PMC11736000", "about": "“Structural and functional analysis of a bile salt hydrolase from the bison microbiome” (The Journal of Biological Chemistry, 2024)", "target": "T1, bile salt hydrolase from Arthrobacter citreus EINP1 (BSHAc) (Arthrobacter citreus, UniProt A0ABZ2ZT44)", "T1 construct": "gene bsh; C-terminally hexahistidine-tagged recombinant BSHAc; NCBI WP_342023006.1", "T1 sequence (A0ABZ2ZT44 entry or part of it)": "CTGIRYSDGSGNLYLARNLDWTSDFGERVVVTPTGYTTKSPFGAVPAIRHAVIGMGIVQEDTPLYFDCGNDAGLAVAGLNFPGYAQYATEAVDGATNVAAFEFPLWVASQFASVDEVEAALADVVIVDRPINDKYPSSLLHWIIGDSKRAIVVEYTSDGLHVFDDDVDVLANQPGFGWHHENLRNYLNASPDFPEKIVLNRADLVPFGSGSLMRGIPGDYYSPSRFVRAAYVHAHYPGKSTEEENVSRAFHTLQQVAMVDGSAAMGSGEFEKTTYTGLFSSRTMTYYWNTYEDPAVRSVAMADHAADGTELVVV", "assay": "[…] Å crystal structure of the covalent complex; time-dependent inactivation kinetics of the purified enzyme (kinact/KI […] ^-1s^-1)", "assay_type": "biochemical", "data": [{"smiles": "C[C@H](CCC(=O)CF)[C@H]1CC[C@H]2[C@@H]3CC[C@@H]4C[C@H](OS(=O)(=O)O)CC[C@]4(C)[C@H]3CC[C@]12C", "note": "[AAA-10]", "values": [{"measurement": "KI (inactivation)", "value": 23, "unit": "µM"}]}]}
